Measurements taken from the METLIN SMRT retention time set (Domingo-Almenara et al. 2019).

Assay: gradient 5% acetonitrile 3 min, to 50% in 2 min, to 85% in 15 min, held 3 min, 100 µL/min
Conditions: column: Zorbax Extend-C18 2.1 x 50 mm; eluents: water / acetonitrile, 0.1% formic acid
In short: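 Standards, all pure, were combined into mixtures of ~100 molecules and run at 100 μL/min on a Zorbax Extend-C18 column (2.1 × 50 mm, 1.8 μm) with water and acetonitrile, each containing 0.1% formic acid. A coupled quadrupole time-of-flight mass spectrometer operated in positive and negative ionization mode. Retention time values come from computationally picked adduct peaks, each inspected manually.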

## CCOc1ccc(CN2CCC(NC(=O)Cc3cccnc3)C2)cn1 (stereo not given)
  RP-LC retention time: 731 s

## O=S(=O)(c1ccccc1F)N1CCC(OCc2noc(C3CCCO3)n2)CC1 (stereo not given)
  RP-LC retention time: 865 s

## CN1Cc2ccccc2-n2ccnc2C12CCN(C(=O)c1ccc(F)c(F)c1)CC2
  RP-LC retention time: 619 s

## Cc1ccccc1CNC(=O)c1ccc(CN2CCN(Cc3ccccc3)C(=O)C2=O)cc1
  RP-LC retention time: 797 s

## Cc1csc(NC(=O)c2ccc(C(=O)Nc3nc(C)cs3)cc2)n1
  RP-LC retention time: 845 s

## Cc1cc(SCC(N)=O)nc2ccccc12
  RP-LC retention time: 664 s

## CCCNC(=O)C1CCCN(c2ccc(SCC(=O)NCc3ccc(F)cc3)nn2)C1 (stereo not given)
  RP-LC retention time: 652 s

## CN(Cc1ccccc1)C(=O)CN1C(=O)C2CCCCN2c2ccc(S(=O)(=O)N(C)C)cc21 (stereo not given)
  RP-LC retention time: 939 s

## Cc1nc(-c2nnn(-c3ccccc3)c2C)no1
  RP-LC retention time: 769 s

## CC1(c2ccccc2)CC(C)(C)N(C(=O)CN2CCOCC2)c2ccccc21 (stereo not given)
  RP-LC retention time: 744 s

## COC(=O)c1cn(CC(=O)Nc2ccc(Br)cc2F)c2nc(C)ccc2c1=O
  RP-LC retention time: 775 s

## Cc1cc(C)c(CN2CCC(N3CCN(Cc4nc(C)no4)C3=O)C2)c(C)c1 (stereo not given)
  RP-LC retention time: 672 s

## CCC(=O)N1c2ccc(S(=O)(=O)N3CCCCC3)cc2CC1C(=O)NC1CCCCC1 (stereo not given)
  RP-LC retention time: 895 s

## Nc1ncnc(Nc2cccc3c2CCCC3)c1[N+](=O)[O-]
  RP-LC retention time: 838 s

## CCOCCCNCc1ccc(-c2ccccc2)o1
  RP-LC retention time: 649 s

## CCOCC(=O)N1CCOc2ccc(N(C)C)cc2C1
  RP-LC retention time: 566 s

## COc1ccc(-c2noc(C3(NC(=O)c4ccc(F)c(Cl)c4)CCCCC3)n2)cc1
  RP-LC retention time: 685 s

## CN1C2CCC1CC(OC(c1ccccc1)c1ccc(Cl)cc1)C2 (stereo not given)
  RP-LC retention time: 862 s

## COCCNC(=O)C1CCCN(c2nccnc2Sc2ccccc2)C1 (stereo not given)
  RP-LC retention time: 810 s

## CCN(CC)c1ccc(-c2noc(CN3CCN(c4ncccn4)CC3)n2)cn1
  RP-LC retention time: 655 s

## O=C1C2CC3N1CCC31c3ccccc3-n3c1c2ccc3=O (stereo not given)
  RP-LC retention time: 721 s

## CCc1ccc(S(=O)(=O)c2cnc(N3CCN(c4ccc(OC)cc4)CC3)nc2N)cc1
  RP-LC retention time: 996 s

## COc1ccc2c(c1)OC1(C)CC2C(S(=O)(=O)c2ccc(C)c(C)c2)C(=O)N1C (stereo not given)
  RP-LC retention time: 1030 s

## O=C(O)c1cccc2c1C(=O)c1cccc3snc-2c13
  RP-LC retention time: 804 s

## COc1cc([C@@H]2c3cc4c(cc3[C@H](O)[C@@H](CO)[C@@H]2C(=O)NC2CCCC2)OCO4)cc(OC)c1OC
  RP-LC retention time: 689 s

## COc1ccc(CNC(=O)C2CN(S(=O)(=O)C3CC3)CC23CCCCC3)cc1 (stereo not given)
  RP-LC retention time: 891 s

## CCOC(=O)c1c(NCCC(C)C)c2cccc(Cl)c2[nH]c1=O
  RP-LC retention time: 890 s

## CC(=O)c1cccc(NC(=O)Cn2c(=O)n(-c3cccc(C)c3)c(=O)c3c2cc(C)n3C)c1
  RP-LC retention time: 796 s

## Cc1cc(C)cc(Nc2c(C(=O)N3CCCC(C)C3)cnc3nc(C)ccc23)c1 (stereo not given)
  RP-LC retention time: 672 s

## Cc1cc(N2CCN(C)CC2)nc2ccc(NC(=O)Nc3ccc(Cl)cc3)cc12
  RP-LC retention time: 610 s

## CCCNC(=O)N(C1CCOCC1)C1CCN(S(=O)(=O)c2ccc(C)cc2C)CC1
  RP-LC retention time: 841 s

## O=C(CS(=O)Cc1cnn(-c2ccccc2)c1-n1cccc1)NCc1cccc(Br)c1 (stereo not given)
  RP-LC retention time: 830 s

## CCC1=NS(=O)(=O)c2cccnc2N1c1ccc(OC)cc1
  RP-LC retention time: 819 s

## O=C(C1=NNc2ccc(Cl)cc2S1(=O)=O)N1CCOCC1
  RP-LC retention time: 663 s

## CC(C)c1nnc2ccc(N3CCCC3)nn12
  RP-LC retention time: 819 s

## CCn1ccc2sc(C)c(C(=O)NCCOC)c2c1=O
  RP-LC retention time: 610 s

## CN=C(NC#N)NCCSCc1csc(N=C(N)N)n1
  RP-LC retention time: 616 s

## CCN(CC)S(=O)(=O)N1CCC(C(=O)NCCN2CCOCC2)CC1
  RP-LC retention time: 579 s

## O=C(CCc1nnc2ccc(N3CCOCC3)nn12)N1CCN(c2ccccn2)CC1
  RP-LC retention time: 566 s

## CSc1cccc(NC(=O)Cn2c(Nc3cc(C)cc(C)c3)nc(C)cc2=O)c1
  RP-LC retention time: 909 s

## COc1cccc(CNC(=O)CCc2nc3c(C)cccc3c(=O)n2C)c1
  RP-LC retention time: 801 s

## CCNC(=O)N1CCCC(c2cccc(C(=O)NCc3cccc(C(F)(F)F)c3)c2)C1 (stereo not given)
  RP-LC retention time: 900 s

## CCOc1cc(N)c(Cl)cc1C(=O)NCC1CN(Cc2ccc(F)cc2)CCO1 (stereo not given)
  RP-LC retention time: 714 s

## CCOc1ccc(-c2noc(Cn3c(=O)n(C(C)C)c(=O)c4ccccc43)n2)cc1
  RP-LC retention time: 1190 s

## Cc1noc(C)c1-c1ccc(S(=O)(=O)N2CCC3(CC2)OCCO3)cc1
  RP-LC retention time: 853 s

## COc1ccc2c(c1)CC(NC(=O)N1CCN(Cc3ccccc3)CC1)CO2 (stereo not given)
  RP-LC retention time: 637 s

## Cc1cccc(-n2nc3c(c2-n2cccc2)CN(C(=O)c2snnc2C)C3)c1
  RP-LC retention time: 894 s

## Fc1cccc(-c2nnc3sc(-c4ccc5ccccc5n4)nn23)c1
  RP-LC retention time: 1180 s

## Cc1nc(-c2ccc(-c3noc(CN4C(=O)COc5ccc(Cl)cc54)n3)cc2)cs1
  RP-LC retention time: 1150 s

## O=C(NC1CC1)[C@@H]1C[C@H](Oc2ccccc2)CN1C(=O)c1cccs1
  RP-LC retention time: 699 s

## Cc1ccc(-n2c(N3CCCC(C(=O)NCc4ccccc4C)C3)nc3ccsc3c2=O)cc1 (stereo not given)
  RP-LC retention time: 954 s

## CCOC(=O)c1noc2nc(C)nc(Nc3cccc(F)c3)c12
  RP-LC retention time: 1120 s

## O=C(NCc1ccccc1Cl)c1ccc2c(cnn2CC(=O)N2CCCCCC2)c1
  RP-LC retention time: 830 s

## CN(CCNC(=O)C1CCc2nc(N3CCOCC3)ncc2C1)C1CCCCC1 (stereo not given)
  RP-LC retention time: 586 s

## CCc1onc(C)c1C1CCCN1C(=O)c1c(Br)cnn1C (stereo not given)
  RP-LC retention time: 728 s

## O=C(NCCCN1CCCC1)c1cc(-c2cccnc2)nc2ccccc12
  RP-LC retention time: 562 s

## Cc1nc(-c2cc(S(=O)(=O)N3CCN(c4ccccc4F)CC3)c(C)s2)cs1
  RP-LC retention time: 1210 s

## C[C@@H]1O[C@@H](O[C@H]2C[C@@H](O)[C@]3(CO)[C@@H]4C(CC[C@]3(O)C2)[C@@]2(O)CC[C@H](C3COC(=O)C3)[C@@]2(C)C[C@H]4O)[C@H](O)[C@H](O)[C@H]1O (stereo not given in full)
  RP-LC retention time: 602 s

## CCOc1ccc(-c2noc(Cc3nnc(-c4cccc(Cl)c4)o3)n2)cc1
  RP-LC retention time: 1140 s

## c1cc2nnc(C3CC3)n2nc1N1CCCC1
  RP-LC retention time: 775 s

## CCOC(=O)C1CCN(C(=O)CCC(=O)N2CCCn3nc(C)cc32)CC1
  RP-LC retention time: 646 s

## Cc1cc(Nc2nc3ccncc3n(Cc3ccccc3)c2=O)ccc1Cl
  RP-LC retention time: 747 s

## CNC(=O)c1noc([C@@H]2CC(F)(F)CN2C(=O)CCC2CCCC2)n1
  RP-LC retention time: 848 s

## COc1cccc(-c2noc(Cn3c(=O)n(-c4ccccc4F)c(=O)c4sccc43)n2)c1
  RP-LC retention time: 957 s

## COc1ccc(NC(=O)CSc2ccc(N3CCCC(C(=O)NC4CC4)C3)nn2)c(OC)c1 (stereo not given)
  RP-LC retention time: 642 s

## COc1cc(C2C(=O)N(C3CCCCC3)CC(=O)N2Cc2ccco2)ccc1OC(C)C (stereo not given)
  RP-LC retention time: 964 s

## CCOC(=O)c1noc2ncnc(NCc3ccc(OC)cc3)c12
  RP-LC retention time: 938 s

## C=CCN1C(=O)COc2ccc(-c3nc(NC(=O)c4ccccc4Cl)sc3C)cc21
  RP-LC retention time: 1010 s

## Cn1c(=O)c2c3c(cnc2n(C)c1=O)C(=O)CC(c1ccc(F)cc1)C3 (stereo not given)
  RP-LC retention time: 940 s

## CC(C)c1ccc(S(=O)(=O)N2CCCC2c2nc(-c3cccc(F)c3)no2)cc1 (stereo not given)
  RP-LC retention time: 1270 s

## Cc1nc2nc(C)c(CCC(=O)N3CCC(Cc4ccccc4)CC3)c(C)n2n1
  RP-LC retention time: 804 s

## c1ccc(SCc2nnc3sc(-c4cccnc4)nn23)cc1
  RP-LC retention time: 742 s

## Nc1cc(C2CCN(S(=O)(=O)c3ccc(F)cc3F)CC2)no1
  RP-LC retention time: 780 s

## Cc1ccc(NC(=O)N2CCCC2c2cc(C)on2)c(C)c1 (stereo not given)
  RP-LC retention time: 823 s

## CC(=O)CCCCn1cnc2c1c(=O)n(C)c(=O)n2C
  RP-LC retention time: 672 s

## COc1ccc(-n2c(=O)n(C)c(=O)c3cc(C(=O)NCc4cccc(OC)c4)cnc32)cc1
  RP-LC retention time: 833 s

## Cc1[nH]c(C(=O)N2CCC(CC(=O)NCCC(C)C)CC2)c(C)c1C
  RP-LC retention time: 813 s

## COc1ccccc1C(CNC(=O)c1cc(=O)c2cc(Br)ccc2o1)N(C)C (stereo not given)
  RP-LC retention time: 651 s

## Cc1cccc(S(=O)(=O)Nc2ccc(-c3cn4cccc(C)c4n3)cc2)c1
  RP-LC retention time: 659 s

## CCN(C(=O)c1nc(C)n(C2CCN(S(C)(=O)=O)CC2)c1C)c1ccccc1
  RP-LC retention time: 610 s

## CN(C)c1ccc(-c2nc(-c3cn(-c4ccc(F)cc4)nn3)no2)cc1
  RP-LC retention time: 1060 s

## Cc1ccc(S(=O)(=O)N2C(=O)CCC2C(=O)N2CCN(c3ccccn3)CC2)cc1 (stereo not given)
  RP-LC retention time: 612 s

## COc1ccccc1CNC(=O)C(=O)NCc1ccsc1
  RP-LC retention time: 796 s

## COCc1noc(C2CCCCN2C(=O)CCc2ccccc2OC)n1 (stereo not given)
  RP-LC retention time: 902 s

## Cc1ccc(-c2c(N3CCN(c4ccccn4)CC3)c(=O)c2=O)cc1C
  RP-LC retention time: 708 s

## CCOC(=O)c1nc(NCc2ccc(OC)cc2)c2ccccc2n1
  RP-LC retention time: 749 s

## COc1cc(OC)c(NC(=O)Cn2ccc3ccc(-c4nnc(C)o4)cc32)cc1Cl
  RP-LC retention time: 859 s

## CCOc1ccccc1C(=O)NC(c1ccccc1)c1nnc(N2CCCC2)o1 (stereo not given)
  RP-LC retention time: 896 s

## CCn1cccc1-c1nc(C)c(C(=O)Nc2ccc(C(C)C)cc2)s1
  RP-LC retention time: 1310 s

## COCCn1cc(CCNC(=O)Nc2cccc(Cl)c2)c2cccnc21
  RP-LC retention time: 762 s
